Test results published in US12077503B2, “Substituted cyclic amides and their use as herbicides” (FMC CORPORATION, priority 2015, dated 2024).

Columns and labels:
Format in all cases: in vivo
[1] = tested on: velvetleaf (Abutilon theophrasti); test: Test G Pre-Emergence Protocol; conditions: Abutilon theophrasti, pre-emergence, 312 h, evaluated after 13 days
Summary of the method: (§1)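 Under a 24/16° C day/night regime with 14 h light and 65% humidity, sown pots were sprayed after one day with compound (15.625, 62.5 or 250 g/ha; 50:50 acetone/water, 0.5% Tween 20). Damage was assessed visually 13 days later, 0 to 100.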

[2] = tested on: barnyardgrass (Echinochloa crus-galli); test: Test G Pre-Emergence Protocol; conditions: Echinochloa crus-galli, pre-emergence, 312 h, evaluated after 13 days
Summary of the method: as §1

[3] = tested on: ivy-leaved morning glory (Ipomoea hederacea); test: Test G Pre-Emergence Protocol; conditions: Ipomoea, pre-emergence, 312 h, evaluated after 13 days
Summary of the method: as §1

[4] = tested on: redroot pigweed (Amaranthus retroflexus); test: Test G Pre-Emergence Protocol; conditions: Amaranthus retroflexus, pre-emergence, 312 h, evaluated after 13 days
Summary of the method: as §1

corn (Zea mays) [5] = test: Test G Pre-Emergence Protocol; conditions: Zea mays, pre-emergence, 312 h, evaluated after 13 days
Summary of the method: as §1

[6] = tested on: giant foxtail (Setaria faberi); test: Test G Pre-Emergence Protocol; conditions: Setaria faberi, pre-emergence, 312 h, evaluated after 13 days
Summary of the method: as §1

[7] = tested on: velvetleaf (Abutilon theophrasti); test: Test G Post-Emergence Protocol; conditions: Abutilon theophrasti, post-emergence, 312 h
Summary of the method: (§2)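 A glasshouse post-emergence test: 8-day-old plants sprayed at 15.625, 62.5 or 250 g/ha, then grown at 24/16 °C day/night with 14 h light and 65% humidity. Damage rated 13 days later, 0–100.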

[8] = tested on: barnyardgrass (Echinochloa crus-galli); test: Test G Post-Emergence Protocol; conditions: Echinochloa crus-galli, post-emergence, 312 h
Summary of the method: as §2

[9] = tested on: ivy-leaved morning glory (Ipomoea hederacea); test: Test G Post-Emergence Protocol; conditions: Ipomoea, post-emergence, 312 h
Summary of the method: as §2

[10] = tested on: redroot pigweed (Amaranthus retroflexus); test: Test G Post-Emergence Protocol; conditions: Amaranthus retroflexus, post-emergence, 312 h
Summary of the method: as §2

corn (Zea mays) [11] = test: Test G Post-Emergence Protocol; conditions: Zea mays, post-emergence, 312 h
Summary of the method: as §2

[12] = tested on: giant foxtail (Setaria faberi); test: Test G Post-Emergence Protocol; conditions: Setaria faberi, post-emergence, 312 h
Summary of the method: as §2

In the case of `COc1cc([C@@H]2CN(C)C(=O)[C@H]2C(=O)Nc2cccc(F)c2F)ccc1Cl` (racemic) [Compound 1474], the pest or weed control at 15.625 g/ha ([1]; 15.625 g ai/ha, read-out: Velvetleaf damage rating (100=total damage to plant; 0=no damage to plant)) is reported as 0%, the pest or weed control at 62.5 g/ha ([1]; 62.5 g ai/ha, 100=total damage to plant, 0=no damage to plant, read-out: plant damage rating, Velvetleaf) is reported as 0% and the pest or weed control at 250 g/ha ([1]; 250 g ai/ha, read-out: Velvetleaf damage rating (100=total damage to plant; 0=no damage to plant)) is reported as 0%. The pest or weed control at 15.625 g/ha ([2]; 15.625 g ai/ha, read-out: Barnyard grass damage rating (100=total damage to plant; 0=no damage to plant)) was 10%, the pest or weed control at 62.5 g/ha ([2]; 62.5 g ai/ha, 100=total damage to plant, 0=no damage to plant, read-out: plant damage rating, Barnyardgrass) was 70% and the pest or weed control at 250 g/ha ([2]; 250 g ai/ha, read-out: Barnyardgrass damage rating (100=total damage to plant; 0=no damage to plant)) was 80%. For the same compound, the pest or weed control at 15.625 g/ha ([3]; 15.625 g ai/ha, read-out: Morning-glory, Ivy-leaved damage rating (100=total damage to plant; 0=no damage to plant)) was 10%, the pest or weed control at 62.5 g/ha ([3]; 62.5 g ai/ha, 100=total damage to plant, 0=no damage to plant, read-out: plant damage rating, Morningglory, Ivy-leaved) was 0% and the pest or weed control at 250 g/ha ([3]; 250 g ai/ha, read-out: Morningglory, Ivy-leaved damage rating (100=total damage to plant; 0=no damage to plant)) was 10%. The pest or weed control at 15.625 g/ha ([4]; 15.625 g ai/ha, read-out: Pigweed, Redroot damage rating (100=total damage to plant; 0=no damage to plant)) was 0%, the pest or weed control at 62.5 g/ha ([4]; 62.5 g ai/ha, 100=total damage to plant, 0=no damage to plant, read-out: plant damage rating, Pigweed, Redroot) was 0% and the pest or weed control at 250 g/ha ([4]; 250 g ai/ha, read-out: Pigweed, Redroot damage rating (100=total damage to plant; 0=no damage to plant)) was 20%. The plant injury at 15.625 g/ha (corn (Zea mays) [5]; 15.625 g ai/ha, read-out: Corn damage rating (100=total damage to plant; 0=no damage to plant)) was 0%, the plant injury at 62.5 g/ha (corn (Zea mays) [5]; 62.5 g ai/ha, 100=total damage to plant, 0=no damage to plant, read-out: plant damage rating, Corn) was 0% and the plant injury at 250 g/ha (corn (Zea mays) [5]; 250 g ai/ha, read-out: Corn damage rating (100=total damage to plant; 0=no damage to plant)) was 40%. The pest or weed control at 15.625 g/ha ([6]; 15.625 g ai/ha, read-out: Foxtail, Giant damage rating (100=total damage to plant; 0=no damage to plant)) was 50%, the pest or weed control at 62.5 g/ha ([6]; 62.5 g ai/ha, 100=total damage to plant, 0=no damage to plant, read-out: plant damage rating, Foxtail, Giant) was 80% and the pest or weed control at 250 g/ha ([6]; 250 g ai/ha, read-out: Foxtail, Giant damage rating (100=total damage to plant; 0=no damage to plant)) was 90%. It also gave a pest or weed control at 15.625 g/ha ([7]; 15.625 g ai/ha, evaluated after 13 days (100=total damage to plant; 0=no damage to plant), read-out: Velvetleaf damage rating) of 10%, a pest or weed control at 62.5 g/ha ([7]; 62.5 g ai/ha, evaluated after 13 days, read-out: Velvetleaf damage rating (100=total damage to plant; 0=no damage to plant)) of 0% and a pest or weed control at 250 g/ha ([7]; 250 g ai/ha, evaluated after 13 days, read-out: damage to plant, Velvetleaf (100=total damage to plant; 0=no damage to plant)) of 20%. It also gave a pest or weed control at 15.625 g/ha ([8]; 15.625 g ai/ha, evaluated after 13 days (100=total damage to plant; 0=no damage to plant), read-out: Barnyardgrass damage rating) of 20%, a pest or weed control at 62.5 g/ha ([8]; 62.5 g ai/ha, evaluated after 13 days, read-out: Barnyardgrass damage rating (100=total damage to plant; 0=no damage to plant)) of 50% and a pest or weed control at 250 g/ha ([8]; 250 g ai/ha, evaluated after 13 days, read-out: damage to plant, Barnyardgrass (100=total damage to plant; 0=no damage to plant)) of 60%. For the same compound, the pest or weed control at 15.625 g/ha ([9]; 15.625 g ai/ha, evaluated after 13 days (100=total damage to plant; 0=no damage to plant), read-out: Morningglory, Ivy-leaved damage rating) was 40%, the pest or weed control at 62.5 g/ha ([9]; 62.5 g ai/ha, evaluated after 13 days, read-out: Morningglory, Ivy-leaved damage rating (100=total damage to plant; 0=no damage to plant)) was 50% and the pest or weed control at 250 g/ha ([9]; 250 g ai/ha, evaluated after 13 days, read-out: damage to plant, Morningglory, Ivy-leaved (100=total damage to plant; 0=no damage to plant)) was 50%. It also gave a pest or weed control at 15.625 g/ha ([10]; 15.625 g ai/ha, evaluated after 13 days (100=total damage to plant; 0=no damage to plant), read-out: Pigweed, Redroot damage rating) of 30%, a pest or weed control at 62.5 g/ha ([10]; 62.5 g ai/ha, evaluated after 13 days, read-out: Pigweed, Redroot damage rating (100=total damage to plant; 0=no damage to plant)) of 0% and a pest or weed control at 250 g/ha ([10]; 250 g ai/ha, evaluated after 13 days, read-out: damage to plant, Pigweed, Redroot (100=total damage to plant; 0=no damage to plant)) of 30%. The plant injury at 15.625 g/ha (corn (Zea mays) [11]; 15.625 g ai/ha, evaluated after 13 days (100=total damage to plant; 0=no damage to plant), read-out: Corn damage rating) was 10%, the plant injury at 62.5 g/ha (corn (Zea mays) [11]; 62.5 g ai/ha, evaluated after 13 days, read-out: Corn damage rating (100=total damage to plant; 0=no damage to plant)) was 30% and the plant injury at 250 g/ha (corn (Zea mays) [11]; 250 g ai/ha, evaluated after 13 days, read-out: damage to plant, Corn (100=total damage to plant; 0=no damage to plant)) was 40%. The pest or weed control at 15.625 g/ha ([12]; 15.625 g ai/ha, evaluated after 13 days (100=total damage to plant; 0=no damage to plant), read-out: Foxtail, Giant damage rating) was 60%, the pest or weed control at 62.5 g/ha ([12]; 62.5 g ai/ha, evaluated after 13 days, read-out: Foxtail, Giant damage rating (100=total damage to plant; 0=no damage to plant)) was 70% and the pest or weed control at 250 g/ha ([12]; 250 g ai/ha, evaluated after 13 days, read-out: damage to plant, Foxtail, Giant (100=total damage to plant; 0=no damage to plant)) was 70%.
